This data set in a line: Systemic exposure to CBD after dermal application.

As for `C=C(C)[C@@H]1CCC(C)=C[C@H]1c1c(O)cc(CCCCC)cc1O` [CBD, cannabidiol], the “reach of the bloodstream / systemic circulation” value is “does not reach the bloodstream”.
